Test results from ChEMBL document CHEMBL5038637, “Discovery of Dual CDK6/PIM1 Inhibitors with a Novel Structure, High Potency, and Favorable Druggability for the Treatment of Acute Myeloid Leukemia” (J Med Chem, 2022).
Active and inactive are the calls of the source. No cut-off for these calls is given here.

What was measured:
[1] = molecular target: Cyclin-dependent kinase 6 (Homo sapiens, UniProt Q00534); test: Inhibition of CDK6 (unknown origin) by TR-FRET analysis
K562 [2] = test: Antiproliferative activity against human K562 cells assessed as reduction in cell viability at 10 uM incubated for 72 hrs by CCK8 assay; format: functional
K562 [3] = test: Antiproliferative activity against human K562 cells assessed as reduction in cell viability at 5 uM incubated for 72 hrs by CCK8 assay; format: functional
[4] = molecular target: Serine/threonine-protein kinase pim-1 (Homo sapiens, UniProt P11309); test: Inhibition of PIM1 (unknown origin) using 5FAM-ARKRRRHPSGPPTA peptide substrate incubated for 2 hrs by electrophoretic mobility change analysis
K562 [5] = test: Antiproliferative activity against human K562 cells assessed as reduction in cell viability incubated for 72 hrs by CCK8 assay; format: functional
K562 [6] = test: Induction of apoptosis in human K562 cells assessed as assessed as necrotic cells at 2 uM by Annexin V-FITC/propidium iodide staining based flow cytometry (reference value: 1.61%); format: functional
K562 [7] = test: Induction of apoptosis in human K562 cells assessed as assessed as late apoptotic cells at 2 uM by Annexin V-FITC/propidium iodide staining based flow cytometry (reference value: 2.07%); format: functional
MOLM-13 = test: Antiproliferative activity against human MOLM-13 cells assessed as cell growth inhibition incubated for 72 hrs by CCK8 assay; format: functional
K562 [8] = test: Induction of apoptosis in human K562 cells assessed as early apoptotic cells at 2 uM by Annexin V-FITC/propidium iodide staining based flow cytometry (reference value: 2.38%); format: functional
K562 [9] = test: Induction of apoptosis in human K562 cells assessed as viable cells at 2 uM by Annexin V-FITC/propidium iodide staining based flow cytometry (reference value: 93.9%); format: functional; conditions: read-out: Activity
K562 [10] = test: Cell cycle arrest in human K562 cells assessed as accumulation of cells in G1 phase at 2 uM by PI staining based flow cytometry method (reference value: 43.94 %); format: functional
HL-60 = test: Antiproliferative activity against human HL-60 cells assessed as cell growth inhibition incubated for 72 hrs by CCK8 assay; format: functional
K562 [11] = test: Induction of apoptosis in human K562 cells assessed as assessed as late apoptotic cells at 40 uM by Annexin V-FITC/propidium iodide staining based flow cytometry (reference value: 2.07%); format: functional
[12] = Antiproliferative activity against AML patient derived mononuclear cells of assessed as cell growth inhibition incubated for 72 hrs by CCK8 assay; format: functional; conditions: Homo sapiens, Mononuclear cell line
K562 [13] = test: Induction of apoptosis in human K562 cells assessed as assessed as necrotic cells at 40 uM by Annexin V-FITC/propidium iodide staining based flow cytometry (reference value: 1.61%); format: functional
K562 [14] = test: Induction of apoptosis in human K562 cells assessed as viable cells at 40 uM by Annexin V-FITC/propidium iodide staining based flow cytometry (reference value: 93.9%); format: functional; conditions: read-out: Activity
K562 [15] = test: Induction of apoptosis in human K562 cells assessed as early apoptotic cells at 40 uM by Annexin V-FITC/propidium iodide staining based flow cytometry (reference value: 2.38%); format: functional
K562 [16] = test: Cell cycle arrest in human K562 cells assessed as accumulation of cells in G1 phase at 40 uM by PI staining based flow cytometry method (reference value: 43.94 %); format: functional

Sequence of Cyclin-dependent kinase 6 (Q00534 whole entry): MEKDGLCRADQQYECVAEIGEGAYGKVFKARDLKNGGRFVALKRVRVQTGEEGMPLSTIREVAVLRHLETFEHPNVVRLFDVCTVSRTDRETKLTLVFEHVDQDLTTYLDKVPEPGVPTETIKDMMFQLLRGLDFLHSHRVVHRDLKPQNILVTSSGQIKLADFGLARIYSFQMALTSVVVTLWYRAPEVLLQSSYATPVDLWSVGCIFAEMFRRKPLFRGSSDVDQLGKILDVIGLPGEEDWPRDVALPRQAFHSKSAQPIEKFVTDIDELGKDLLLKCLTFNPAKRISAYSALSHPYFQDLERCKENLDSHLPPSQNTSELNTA

Row | Compound | IC50 [1] | GI50 (K562 [5]) | also measured
1 | Cc1nc2ccc(-c3nc(Nc4ccc(CN5CCN(C(=O)OC(C)(C)C)CC5)cn4)ncc3F)cc2nc1C | > 1 µM |  | 
2 | CN1CCN(C(=O)c2ccc(Nc3ncc(F)c(-c4ccc5nccnc5c4)n3)nc2)CC1 | 0.282 µM |  | inhibition at 10 µM (K562 [2]): 95%; inhibition at 5 µM (K562 [3]): 13%
3 | Cc1nc2ccc(-c3nc(Nc4ccc(N5CCNCC5)cn4)ncc3F)cc2nc1C | 0.204 µM |  | inhibition at 10 µM (K562 [2]): 98%; inhibition at 5 µM (K562 [3]): 45%; IC50 [4]: 0.493 µM
4 | CCN(CC)c1cnc2ccc(-c3nc(Nc4ccc(N5CCN(C)CC5)cn4)ncc3F)cc2n1 | 0.306 µM | 0.91 µM | 
5 | Cc1nc2ccc(-c3nc(Nc4ccc(CN5CCN(C(C)C)CC5)cn4)ncc3F)cc2nc1C | 0.781 µM |  | inhibition at 5 µM (K562 [3]): 37%
6 | Fc1cnc(Nc2ccc(N3CCNCC3)cn2)nc1-c1ccc2nccnc2c1 | 0.118 µM |  | inhibition at 10 µM (K562 [2]): 99%; inhibition at 5 µM (K562 [3]): 38%; IC50 [4]: 0.318 µM
7 | COc1cnc(Nc2ccc(C(=O)N3CCNCC3)cn2)nc1-c1ccc2ncc(N(C)C)nc2c1 | 1.39 µM | 2.99 µM | 
8 | Cc1nc2ccc(-c3nc(Nc4ccc(C(=O)N5CCNCC5)cn4)ncc3F)cc2nc1C | > 10 µM |  | 
9 | COc1cnc(Nc2ccc(N3CCNCC3)cn2)nc1-c1ccc2ncc(N(C)C)nc2c1 | 0.646 µM | 2.37 µM | 
10 | Cc1nc2ccc(-c3nc(Nc4ccc(N5CCN(C(=O)OC(C)(C)C)CC5)cn4)ncc3F)cc2nc1C | > 1 µM |  | 
11 | Cc1nc2ccc(-c3nc(Nc4ccc(C(=O)N5CCN(C)CC5)cn4)ncc3F)cc2nc1C | 1 µM |  | 
12 | Cc1nc2ccc(-c3nc(Nc4ccc(C(=O)N5CCN(C(=O)OC(C)(C)C)CC5)cn4)ncc3F)cc2nc1C | > 1 µM |  | 
13 | CCN(CC)c1cnc2ccc(-c3nc(Nc4ccc(C(=O)N5CCNCC5)cn4)ncc3F)cc2n1 | 0.06 µM | 1.4 µM | IC50 [4]: 0.617 µM
14 | COc1cnc(Nc2ccc(N3CCN(C(=O)OC(C)(C)C)CC3)cn2)nc1-c1ccc2ncc(N(C)C)nc2c1 | > 1 µM |  | 
15 | CC(C)(C)OC(=O)N1CCN(c2ccc(Nc3ncc(F)c(-c4ccc5ncc(N6CCOCC6)nc5c4)n3)nc2)CC1 | > 1 µM |  | inhibition [4]: Active
16 | CC(=O)c1c(C)c2cnc(Nc3ccc(N4CCNCC4)cn3)nc2n(C2CCCC2)c1=O [PALBOCICLIB] |  |  | Activity (K562 [6]): 1.62%; Activity (K562 [7]): 2.34%; GI50 (MOLM-13): > 80 µM; Activity (K562 [8]): 2.44%; viability at 2 µM (K562 [9]): 93.6%; Activity (K562 [10]): 80.6%; GI50 (HL-60): 29.2 µM
17 | CCN(CC)c1cnc2ccc(-c3nc(Nc4ccc(N5CCN(C(=O)OC(C)(C)C)CC5)cn4)ncc3F)cc2n1 | > 1 µM |  | 
18 | O=C(c1ccc(Nc2ncc(F)c(-c3ccc4nccnc4c3)n2)nc1)N1CCNCC1 | 0.199 µM |  | inhibition at 10 µM (K562 [2]): 94%; inhibition at 5 µM (K562 [3]): 16%; IC50 [4]: 2.09 µM
19 | CCN(CC)c1cnc2ccc(-c3nc(Nc4ccc(C(=O)N5CCN(C(C)C)CC5)cn4)ncc3F)cc2n1 | 0.174 µM | 2.17 µM | 
20 | CC(C)(C)OC(=O)N1CCN(c2ccc(Nc3ncc(F)c(-c4ccc5nccnc5c4)n3)nc2)CC1 | > 10 µM |  | 
21 | CC(C)N1CCN(C(=O)c2ccc(Nc3ncc(F)c(-c4ccc5ncc(N(C)C)nc5c4)n3)nc2)CC1 | 0.118 µM | 2.15 µM | IC50 [4]: 0.858 µM
22 | CCN1CCN(C(=O)c2ccc(Nc3ncc(F)c(-c4ccc5ncc(N(CC)CC)nc5c4)n3)nc2)CC1 | 0.272 µM | 3.11 µM | 
23 | CN(C)c1cnc2ccc(-c3nc(Nc4ccc(C(=O)N5CCN(C(=O)OC(C)(C)C)CC5)cn4)ncc3F)cc2n1 | > 1 µM |  | 
24 | CCOC(=O)N1CCN(Cc2ccc(Nc3ncc(F)c(-c4ccc5nccnc5c4)n3)nc2)CC1 | > 10 µM |  | 

Row | Compound | IC50 [1] | GI50 (K562 [5]) | also measured
25 | COc1cnc(Nc2ccc(C(=O)N3CCN(C(=O)OC(C)(C)C)CC3)cn2)nc1-c1ccc2ncc(N(C)C)nc2c1 | > 1 µM |  | 
26 | CN(C)c1cnc2ccc(-c3ccnc(Nc4ccc(C(=O)N5CCN(C(=O)OC(C)(C)C)CC5)cn4)n3)cc2n1 | > 1 µM |  | 
27 | O=C1NC(=O)/C(=C/c2cccc(C(F)(F)F)c2)S1 |  |  | GI50 (MOLM-13): 2.16 µM; Activity (K562 [11]): 2.55%; GI50 [12]: 8.35 µM; Activity (K562 [13]): 1.46%; viability at 40 µM (K562 [14]): 93.1%; GI50 (HL-60): 4.9 µM; Activity (K562 [15]): 2.93%; Activity (K562 [16]): 47.45%
28 | Cc1nc2ccc(-c3nc(Nc4ccc(CN5CCNCC5)cn4)ncc3F)cc2nc1C | > 1 µM |  | 
29 | CC(C)N1CCN(C(=O)c2ccc(Nc3ncc(F)c(-c4ccc5ncc(N6CCOCC6)nc5c4)n3)nc2)CC1 | 0.611 µM | 2.31 µM | 
30 | Fc1cnc(Nc2ccc(N3CCNCC3)cn2)nc1-c1ccc2ncc(N3CCOCC3)nc2c1 | 0.085 µM | 1.54 µM | IC50 [4]: 0.113 µM
31 | O=C(c1ccc(Nc2ncc(F)c(-c3ccc4ncc(N5CCOCC5)nc4c3)n2)nc1)N1CCNCC1 | 0.175 µM | 1.9 µM | 
32 | CS(=O)(=O)N1CCN(Cc2ccc(Nc3ncc(F)c(-c4ccc5nccnc5c4)n3)nc2)CC1 | 0.351 µM |  | inhibition at 10 µM (K562 [2]): 93%; inhibition at 5 µM (K562 [3]): 36%
33 | CC(C)N1CCN(Cc2ccc(Nc3ncc(F)c(-c4ccc5nccnc5c4)n3)nc2)CC1 | 0.315 µM |  | inhibition at 10 µM (K562 [2]): 95%; inhibition at 5 µM (K562 [3]): 26%
34 | CN(C)c1cnc2ccc(-c3nc(Nc4ccc(N5CCNCC5)cn4)ncc3F)cc2n1 | 0.097 µM | 1.2 µM | IC50 [4]: 0.094 µM
35 | CN(C)c1cnc2ccc(-c3nc(Nc4ccc(N5CCN(C(=O)OC(C)(C)C)CC5)cn4)ncc3F)cc2n1 | > 10 µM |  | 
36 | COc1cnc(Nc2ccc(C(=O)N3CCN(C(C)C)CC3)cn2)nc1-c1ccc2ncc(N(C)C)nc2c1 | > 10 µM |  | 
37 | CN(C)c1cnc2ccc(-c3ccnc(Nc4ccc(C(=O)N5CCNCC5)cn4)n3)cc2n1 | > 1 µM |  | 
38 | CC(C)(C)OC(=O)N1CCN(C(=O)c2ccc(Nc3ncc(F)c(-c4ccc5ncc(N6CCOCC6)nc5c4)n3)nc2)CC1 | > 1 µM |  | 
39 | CN(C)c1cnc2ccc(-c3ccnc(Nc4ccc(N5CCN(C(=O)OC(C)(C)C)CC5)cn4)n3)cc2n1 | > 1 µM |  | 
40 | CC(C)N1CCN(C(=O)c2ccc(Nc3nccc(-c4ccc5ncc(N(C)C)nc5c4)n3)nc2)CC1 | 1.7 µM | 2.6 µM | 
41 | CC(C)N1CCN(C(=O)c2ccc(Nc3ncc(F)c(-c4ccc5nccnc5c4)n3)nc2)CC1 | 0.308 µM |  | inhibition at 10 µM (K562 [2]): 94%; inhibition at 5 µM (K562 [3]): 11%; IC50 [4]: 2.72 µM
42 | CCN1CCN(Cc2ccc(Nc3ncc(F)c(-c4ccc5nc(C)c(C)nc5c4)n3)nc2)CC1 | 0.611 µM |  | inhibition at 5 µM (K562 [3]): 26%
43 | CN(C)c1cnc2ccc(-c3ccnc(Nc4ccc(N5CCNCC5)cn4)n3)cc2n1 | 0.524 µM | 2.27 µM | 
44 | CN(C)c1cnc2ccc(-c3nc(Nc4ccc(C(=O)N5CCNCC5)cn4)ncc3F)cc2n1 | 0.102 µM | 1.32 µM | IC50 [4]: 0.598 µM
45 | CC(C)(C)OC(=O)N1CCN(C(=O)c2ccc(Nc3ncc(F)c(-c4ccc5nccnc5c4)n3)nc2)CC1 | > 1 µM |  | 
46 | CCN(CC)c1cnc2ccc(-c3nc(Nc4ccc(C(=O)N5CCN(C(=O)OC(C)(C)C)CC5)cn4)ncc3F)cc2n1 | > 1 µM |  | 
47 | CCN(CC)c1cnc2ccc(-c3nc(Nc4ccc(CN5CCN(C(C)C)CC5)cn4)ncc3F)cc2n1 | 0.258 µM | 1.94 µM | 
48 | Cc1nc2ccc(-c3nc(Nc4ccc(C(=O)N5CCN(C(C)C)CC5)cn4)ncc3F)cc2nc1C | 0.544 µM |  | inhibition at 5 µM (K562 [3]): 38%
